Data reported in ChEMBL document CHEMBL1201862, “PubChem BioAssay data set” (2004).
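Method: 48-hour compound exposure of cells in 96-well plates, five concentrations, linear interpolation of endpoints. GI50 = concentration required for 50% inhibition of growth.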 Calls of active or inactive are those of the source. Rule as the data show it: active = GI50 up to about 1.1 µM and inactive = higher.

What was measured:
Assay in all cases: NCI-60 cell line screen, 48 h
OVCAR-4 = tested on: OVCAR-4
SNB-19 = tested on: SNB-19
SK-MEL-2 = tested on: SK-MEL-2
ACHN = tested on: ACHN
CAKI-1 = tested on: CAKI-1
TK-10 = tested on: TK-10
A498 = tested on: A498
OVCAR-8 = tested on: OVCAR-8
DU-145 = tested on: DU-145
OVCAR-5 = tested on: OVCAR-5
NCI-H226 = tested on: NCI-H226
KM12 = tested on: KM12
HL-60 = tested on: HL-60
RPMI-8226 = tested on: RPMI-8226
HOP-62 = tested on: HOP-62
SK-MEL-5 = tested on: SK-MEL-5
UACC-257 = tested on: UACC-257
MOLT-4 = tested on: MOLT-4
COLO 205 = tested on: COLO 205
MCF7 = tested on: MCF7

Measured: GI50

Cc1cc(OCC(=O)O)c(Cl)cc1Cl
inactive: OVCAR-4 > 100 µM | SNB-19 > 100 µM | SK-MEL-2 > 100 µM | ACHN > 100 µM | CAKI-1 > 100 µM | TK-10 > 100 µM | A498 > 100 µM | OVCAR-8 > 100 µM | DU-145 > 100 µM | OVCAR-5 > 100 µM | NCI-H226 > 100 µM | KM12 > 100 µM | HL-60 > 100 µM | RPMI-8226 81.3 µM | HOP-62 > 100 µM | SK-MEL-5 > 100 µM | UACC-257 > 100 µM | MOLT-4 > 100 µM

Cc1cc([N+](=O)[O-])c(C)c(Br)c1C
inactive: OVCAR-4 > 100 µM | COLO 205 > 100 µM | SNB-19 > 100 µM | SK-MEL-2 > 100 µM | ACHN > 100 µM | CAKI-1 > 100 µM | TK-10 > 100 µM | A498 > 100 µM | OVCAR-8 > 100 µM | DU-145 > 100 µM | OVCAR-5 > 100 µM | NCI-H226 > 100 µM | KM12 > 100 µM | RPMI-8226 > 100 µM | HOP-62 > 100 µM | MCF7 > 100 µM | SK-MEL-5 > 100 µM | UACC-257 > 100 µM

N#CC1=C2Sc3ccccc3N2[C@H](c2ccccc2)[C@H]2COC(=O)[C@@H]12
inactive: OVCAR-4 > 100 µM | COLO 205 > 100 µM | SNB-19 > 100 µM | SK-MEL-2 48 µM | ACHN > 100 µM | CAKI-1 17.5 µM | TK-10 38.9 µM | A498 54.8 µM | OVCAR-8 > 100 µM | DU-145 > 100 µM | OVCAR-5 > 100 µM | NCI-H226 > 100 µM | KM12 63.2 µM | RPMI-8226 22.6 µM | HOP-62 > 100 µM | MCF7 31 µM | SK-MEL-5 > 100 µM | UACC-257 > 100 µM | MOLT-4 33.5 µM

COc1cc(C2SCC(=O)N2c2ccc(Oc3ccc(Cl)cc3)c(Cl)c2)cc(OC)c1OC (stereo unspecified)
inactive: OVCAR-4 42.7 µM | COLO 205 19.7 µM | SNB-19 34.2 µM | SK-MEL-2 17.1 µM | ACHN 30.9 µM | CAKI-1 16.9 µM | TK-10 17.6 µM | OVCAR-8 17 µM | DU-145 13.3 µM | OVCAR-5 23.2 µM | NCI-H226 15.8 µM | KM12 19.8 µM | RPMI-8226 29.4 µM | HOP-62 20.4 µM | MCF7 36.3 µM | SK-MEL-5 17.9 µM | UACC-257 18.1 µM | MOLT-4 8.04 µM

COc1ccc(-c2csc(Cc3nc4c(Br)cc(Br)cc4c(=O)n3-c3ccc(OC)cc3)n2)cc1
inactive: OVCAR-4 > 100 µM | COLO 205 34.8 µM | SNB-19 18.9 µM | SK-MEL-2 48 µM | ACHN 43.7 µM | CAKI-1 94.4 µM | TK-10 56.6 µM | A498 45.3 µM | OVCAR-8 > 100 µM | DU-145 > 100 µM | OVCAR-5 56.4 µM | NCI-H226 > 100 µM | KM12 86.5 µM | HOP-62 > 100 µM | MCF7 63.1 µM | SK-MEL-5 20.3 µM | UACC-257 > 100 µM | MOLT-4 25.5 µM

O=C(N[C@@H](c1ccccc1)[C@@H](O)C(=O)OCc1ccc([N+](=O)[O-])cc1)c1ccccc1
inactive: OVCAR-4 > 100 µM | COLO 205 > 100 µM | SNB-19 > 100 µM | SK-MEL-2 > 100 µM | ACHN > 100 µM | CAKI-1 > 100 µM | TK-10 > 100 µM | A498 > 100 µM | OVCAR-8 > 100 µM | DU-145 > 100 µM | OVCAR-5 > 100 µM | NCI-H226 > 100 µM | KM12 > 100 µM | HOP-62 > 100 µM | MCF7 84.5 µM | SK-MEL-5 75.9 µM | UACC-257 > 100 µM | MOLT-4 25.8 µM

O=C(O)CC(NC(=O)/C(=C/c1ccccc1O)NC(=O)c1ccccc1)C(=O)O (stereo unspecified)
inactive: OVCAR-4 > 100 µM | COLO 205 > 100 µM | SK-MEL-2 > 100 µM | ACHN 40.8 µM | CAKI-1 34.7 µM | TK-10 > 100 µM | A498 50.5 µM | OVCAR-8 > 100 µM | OVCAR-5 > 100 µM | NCI-H226 > 100 µM | KM12 > 100 µM | HL-60 25.8 µM | RPMI-8226 82.6 µM | HOP-62 > 100 µM | MCF7 34 µM | SK-MEL-5 > 100 µM | UACC-257 > 100 µM | MOLT-4 52.4 µM

NS(=O)(=O)c1ccccc1C(=O)N/N=C(\c1nc2ccc([N+](=O)[O-])cc2[nH]c1=O)C(O)c1ccc([N+](=O)[O-])cc1 (stereo unspecified)
inactive: OVCAR-4 > 100 µM | COLO 205 > 100 µM | SNB-19 > 100 µM | SK-MEL-2 > 100 µM | ACHN 41.6 µM | CAKI-1 > 100 µM | TK-10 > 100 µM | A498 > 100 µM | OVCAR-8 > 100 µM | DU-145 > 100 µM | OVCAR-5 > 100 µM | NCI-H226 > 100 µM | KM12 66.2 µM | HL-60 > 100 µM | RPMI-8226 58.5 µM | SK-MEL-5 44.4 µM | UACC-257 > 100 µM | MOLT-4 > 100 µM

Clc1ccc(C2ON=C(c3ccccc3)N2C23CC4CC(CC(C4)C2)C3)cc1Cl (stereo unspecified)
inactive: OVCAR-4 > 10 µM | COLO 205 > 10 µM | SNB-19 > 10 µM | SK-MEL-2 > 10 µM | ACHN > 10 µM | CAKI-1 > 10 µM | TK-10 > 10 µM | A498 > 10 µM | OVCAR-8 > 10 µM | DU-145 > 10 µM | OVCAR-5 > 10 µM | NCI-H226 > 10 µM | KM12 > 10 µM | RPMI-8226 > 10 µM | HOP-62 > 10 µM | MCF7 > 10 µM | SK-MEL-5 > 10 µM | UACC-257 > 10 µM | MOLT-4 > 10 µM

CCC(C)(C)C1CCC2c3c([nH]c4ccccc34)C3C(=O)N(c4ccc(OC)cc4)C(=O)C3C2C1 (stereo unspecified)
inactive: OVCAR-4 16.7 µM | COLO 205 10.3 µM | SNB-19 25.6 µM | SK-MEL-2 16.7 µM | ACHN 11.2 µM | CAKI-1 10.4 µM | TK-10 16.7 µM | OVCAR-8 12.9 µM | DU-145 5.4 µM | OVCAR-5 15.3 µM | NCI-H226 16.5 µM | KM12 3.48 µM | HOP-62 10.2 µM | MCF7 3.94 µM | UACC-257 34 µM | MOLT-4 3.62 µM

Cn1c2ccccc2c(=S)c2cc(NC(=O)CCCCC(=O)Nc3ccc4c(c3)c(=S)c3ccccc3n4C)ccc21
inactive: COLO 205 > 100 µM | SNB-19 > 100 µM | SK-MEL-2 > 100 µM | ACHN > 100 µM | CAKI-1 > 100 µM | TK-10 > 100 µM | A498 > 100 µM | OVCAR-8 34.3 µM | DU-145 > 100 µM | OVCAR-5 > 100 µM | NCI-H226 > 100 µM | KM12 > 100 µM | RPMI-8226 > 100 µM | HOP-62 54.7 µM | MCF7 > 100 µM | SK-MEL-5 > 100 µM | UACC-257 > 100 µM | MOLT-4 > 100 µM

C=C(CN(C)C)C(=O)c1ccccc1Cl
inactive: OVCAR-4 20.4 µM | COLO 205 13.9 µM | SNB-19 63.1 µM | SK-MEL-2 18.1 µM | ACHN 17.6 µM | CAKI-1 17.1 µM | TK-10 21.7 µM | A498 36.8 µM | OVCAR-8 18.3 µM | DU-145 36.4 µM | OVCAR-5 > 43 µM | NCI-H226 > 67.3 µM | KM12 > 47.8 µM | HL-60 5.5 µM | RPMI-8226 17.7 µM | HOP-62 > 100 µM | SK-MEL-5 24.2 µM | UACC-257 18.8 µM | MOLT-4 6.68 µM

CCOP(=O)(OCC)/C(C#N)=C/c1cccn1C(C)C
inactive: COLO 205 > 100 µM | SNB-19 > 100 µM | SK-MEL-2 > 100 µM | ACHN > 100 µM | CAKI-1 > 100 µM | TK-10 > 100 µM | A498 > 100 µM | OVCAR-8 > 100 µM | DU-145 > 100 µM | OVCAR-5 > 100 µM | NCI-H226 > 100 µM | KM12 > 100 µM | HOP-62 > 100 µM | MCF7 > 10 µM | SK-MEL-5 > 100 µM | UACC-257 > 100 µM | MOLT-4 > 100 µM

COc1cc2cc(C(=O)N3CC(CCl)c4c3cc([N+](=O)[O-])c3ccccc43)[nH]c2c(OC)c1OC (stereo unspecified)
inactive: OVCAR-4 > 51.2 µM | COLO 205 > 76 µM | SNB-19 87.7 µM | SK-MEL-2 > 100 µM | ACHN 11.2 µM | CAKI-1 39.4 µM | TK-10 > 100 µM | A498 > 40.6 µM | OVCAR-8 12.8 µM | DU-145 12.5 µM | OVCAR-5 25.6 µM | NCI-H226 > 100 µM | KM12 > 62.8 µM | RPMI-8226 > 100 µM | HOP-62 8.91 µM | MCF7 17.3 µM | SK-MEL-5 29.6 µM | UACC-257 > 100 µM | MOLT-4 13.8 µM

Cc1ccc2c(c1)NC(=O)CC(c1ccccc1)=N2
inactive: OVCAR-4 > 100 µM | SNB-19 > 100 µM | SK-MEL-2 > 100 µM | ACHN > 100 µM | CAKI-1 > 100 µM | TK-10 > 100 µM | A498 > 100 µM | OVCAR-8 > 100 µM | DU-145 > 100 µM | OVCAR-5 > 100 µM | NCI-H226 > 100 µM | KM12 43.9 µM | RPMI-8226 17.4 µM | HOP-62 > 100 µM | MCF7 71.8 µM | SK-MEL-5 40 µM | UACC-257 > 100 µM | MOLT-4 28.6 µM
